Earlier results in patent publication US20030008923A1, “Antineoplastic combinations” (Wyeth, priority 2001, published 2003).

Assays:
mTOR = mTOR (Homo sapiens, UniProt P42345+P62942); settings: growth factor stimulated cells, Western blot
[1] = tested on: histologically diverse tumor cells
[2] = tested on: human glioblastoma cell line; settings: human glioblastoma cell line in vitro

Structure (SMILES)	phosphorylation of serine 389 of p70s6 kinase (mTOR)	growth of tumor cells in vitro ([1]; histologically diverse tumor cells)	cell cycle effect ([1]; in vitro)	activity against human tumor xenografts of diverse histological types (human tumor xenografts; nude mice)	growth of several human pancreatic tumors (human tumor xenografts; nude mice)	activity in orthotopic glioma model (human tumor xenografts; orthotopic glioma model in nude mice)	growth factor (platelet-derived)-induced stimulation [2]
CO[C@H]1C[C@@H]2CC[C@@H](C)[C@@](O)(O2)C(=O)C(=O)N2CCCC[C@H]2C(=O)O[C@H]([C@H](C)C[C@@H]2CC[C@@H](O)[C@H](OC)C2)CC(=O)[C@H](C)/C=C(\C)[C@@H](O)[C@@H](OC)C(=O)[C@H](C)C[C@H](C)/C=C/C=C/C=C/1C [rapamycin]	completely blocks						
CO[C@H]1C[C@@H]2CC[C@@H](C)[C@@](O)(O2)C(=O)C(=O)N2CCCC[C@H]2C(=O)O[C@H]([C@H](C)C[C@@H]2CC[C@@H](OC(=O)C(C)(CO)CO)[C@H](OC)C2)CC(=O)[C@H](C)/C=C(\C)[C@@H](O)[C@@H](OC)C(=O)[C@H](C)C[C@H](C)/C=C/C=C/C=C/1C [CCI-779, Rapamycin 42-ester with 3-hydroxy-2-(hydroxymethyl)-2-methylpropionic acid]		inhibit the growth	arrested cells in the G1 phase	has activity	inhibited	active	markedly suppressed
